Results as given in US20080262054A1, “Pharmaceutical Composition Containing Thiazolidinedione Compound” (priority 2005, published 2008).
Counter-ions that a name gives are not always drawn.

Columns and labels:
[1] = Dissolution Rate Test 1 of Compound A (Test Example 1); format: physicochemical; conditions: JP first fluid, 37° C.
Procedure: About 40 mg of Compound A or a monohydrate of Compound A and a formulation excipient [one excipient is selected from the following excipients: 377.6 mg of lactose (Borculo Domo Ingredients), 78.0 mg of croscarmellose sodium (Ac-Di-Sol, FMC International), 15.6 mg of hydroxypropyl cellulose (HPC-L, Nippon Soda Co., Ltd.), 5.2 mg of magnesium stearate (NOF Corp.) and 0.112 mg of yellow ferric oxide (Kishi Kasei Co., Ltd.)] were added to 200 ml of Japanese Pharmacopoeia (JP) first fluid (7.0 ml of hydrochloric acid and water added to 2.0 g of sodium chloride followed by dissolving and bringing to a volume of 100 ml, normally used as a test liquid that imitates disintegration and elution of chemicals in the stomach) followed by stirring with a stirrer at 37° C. in a 300 ml conical beaker. 10 ml-samples were collected after 30 minutes, 1 hour, 3 hours and 6 hours followed by filtration using Acrodisk LC13 (PVDF, Gelman Science, Inc.). After discarding the first 3 ml, the next 7 ml were removed into a test tube. 5 ml of the sample in the test tube was taken with a whole pipette and transferred to a test tube containing 2 ml of methanol followed by mixing.
(§1) Quantification was carried out using HPLC, and solubility was determined from a calibration curve generated according to the method described below.
The calibration curve was generated by preparing methanol standard solutions of Compound A at concentrations of 400, 100 and 20 μg/ml, followed by the addition of 5 ml of JP first fluid to 2 ml of each standard solution, mixing and quantifying by HPLC.
Analytical column: L-column ODS (4.6 mm ID×15 cm, Chemicals Evaluation and Research Institute, Japan)
Mobile phase: 0.01 mol/1 mixture of acetate buffer (pH 5.0) and acetonitrile (13:7)
Column temperature: 40° C.
Detector: Ultraviolet absorption spectrophotometer (measuring wavelength: 290 nm)

[2] = Dissolution Rate Test 2 of Compound A (Test Example 2); format: physicochemical; conditions: JP first fluid, 37° C., subsequently to 1 hour (3 hours, 6 hours); FIG. 2
Procedure: Dissolution Rate Test 2 of 5-{4-[(6-methoxy-1-methyl-1H-benzimidazol-2-yl)methoxy]benzyl}thiazolidine-2,4-dione hydrochloride (Compound A) About 40 mg of Compound A or a monohydrate of Compound A and a formulation excipient [one excipient is selected from the following excipients: 23.9 mg of OPADRY II, 17.2 mg of polyvinyl alcohol (GOHSENOL GL-05, Nippon Synthetic Chemical Industry Co., Ltd.), and 23.9 mg of OPAGLOS 2] were added to 200 ml of Japanese Pharmacopoeia (JP) first fluid (7.0 ml of hydrochloric acid and water added to 2.0 g of sodium chloride followed by dissolving and bringing to a volume of 100 ml, normally used as a test liquid that imitates disintegration and elution of chemicals in the stomach) followed by stirring with a stirrer at 37° C. in a 300 ml conical beaker. 10 ml-samples were collected after 30 minutes, 1 hour, 3 hours and 6 hours followed by filtration using Acrodisk LC13 (PVDF, Gelman Science, Inc.). […]
as §1
The calibration curve was generated by preparing methanol standard solutions of Compound A at concentrations of 400, 100 and 20 μg/ml, followed by the addition of 5 ml of JP first fluid to 2 ml of each standard solution, mixing and quantifying by HPLC. […]

[3] = stirring, samples after 30 minutes, 1 hour, 3 hours and 6 hours, HPLC, FIG. 1

Structure (SMILES) | solubility [1, 3] | solubility [2] | solubility ([1]; subsequently to 1 hour (3 hours, 6 hours))
COc1ccc2nc(COc3ccc(CC4SC(=O)NC4=O)cc3)n(C)c2c1.Cl.O (stereo not shown) [monohydrate, 5-{4-[(6-methoxy-1-methyl-1H-benzimidazol-2-yl)methoxy]benzyl}thiazolidine-2,4-dione hydrochloride (Compound A) monohydrate] | extremely low | – | –
COc1ccc2nc(COc3ccc(CC4SC(=O)NC4=O)cc3)n(C)c2c1 (stereo not shown) [Compound A, 5-{4-[(6-methoxy-1-methyl-1H-benzimidazol-2-yl)methoxy]benzyl}thiazolidine-2,4-dione hydrochloride] | decrease over time | decreased rapidly | decreased rapidly
